Measured values published in ChEMBL document CHEMBL1201862, “PubChem BioAssay data set” (2004).
The source made the active and inactive calls.

Experiments:
Leucine aminopeptidase = biological target: T1, Leucine aminopeptidase (Plasmodium falciparum 3D7, UniProt Q8IL11); assay: P. falciparum M17LAP inhibitors, primary screen, biochemical, fluorogenic H-Leu-NHMec substrate, 1536-well (AID 1619); assay type: functional
T1 sequence (Q8IL11 whole entry): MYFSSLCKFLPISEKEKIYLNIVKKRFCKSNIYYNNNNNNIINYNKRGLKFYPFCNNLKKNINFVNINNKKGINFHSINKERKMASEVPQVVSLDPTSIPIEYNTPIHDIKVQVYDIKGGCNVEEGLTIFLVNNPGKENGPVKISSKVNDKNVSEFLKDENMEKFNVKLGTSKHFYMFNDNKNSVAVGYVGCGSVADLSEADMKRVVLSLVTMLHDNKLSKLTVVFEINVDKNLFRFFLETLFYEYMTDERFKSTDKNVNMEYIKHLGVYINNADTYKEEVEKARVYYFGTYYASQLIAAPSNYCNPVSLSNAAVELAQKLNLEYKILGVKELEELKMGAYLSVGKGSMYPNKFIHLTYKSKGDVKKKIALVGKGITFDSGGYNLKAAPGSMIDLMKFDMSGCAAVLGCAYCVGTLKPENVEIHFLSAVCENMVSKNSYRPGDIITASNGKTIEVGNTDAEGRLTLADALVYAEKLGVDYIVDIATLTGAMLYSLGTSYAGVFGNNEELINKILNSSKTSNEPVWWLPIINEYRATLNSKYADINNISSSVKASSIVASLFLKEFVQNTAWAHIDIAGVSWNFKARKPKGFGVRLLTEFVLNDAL

[1] = blockers of HIV-1 ZM109 envelope-driven cell-cell fusion – HeLa effector, CEM target cells, luciferase, cherry-pick, dose response (AID 652058); assay type: functional, cell-based;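 note: luciferase signal from HIV-1 Env mediated cell-cell fusion of effector and target cells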
[2] = blockers of HIV-1 envelope-mediated cell-cell fusion – cherry-pick, dose response (AID 652057); assay type: functional, cell-based
[3] = HIV-1 AD8 envelope cell-cell fusion blockers – cherry-pick, dose response (AID 652062); assay type: functional, cell-based;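 note: luciferase signal from cell-cell fusion driven by HIV-1 clade B AD8 Env; potency is for inhibitors of fusion seen as a drop in luminescence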
[4] = biological target: T2, Calpain-2 catalytic subunit (Sus scrofa, UniProt P43367); assay: m-calpain protease blockers, concentration series – biochemical, fluorogenic peptide substrate, dose response (AID 1420); assay type: functional
T2 sequence (P43367 whole entry): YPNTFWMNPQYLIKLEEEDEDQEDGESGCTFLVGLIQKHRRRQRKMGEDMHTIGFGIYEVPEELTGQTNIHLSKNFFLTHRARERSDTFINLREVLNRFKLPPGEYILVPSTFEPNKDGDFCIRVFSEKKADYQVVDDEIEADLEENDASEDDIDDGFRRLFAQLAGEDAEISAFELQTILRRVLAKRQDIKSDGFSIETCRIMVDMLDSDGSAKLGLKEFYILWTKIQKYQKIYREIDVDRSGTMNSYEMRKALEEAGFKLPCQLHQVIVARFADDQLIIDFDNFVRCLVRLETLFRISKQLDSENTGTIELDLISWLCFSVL

[5] = off-target signal loss in HeLa-CEM21 co-culture – HeLa F-luc CTL cells, cherry-picked, counter-screen for HIV-1 Env fusion inhibitor project, dose response (AID 652040); assay type: functional, cell-based;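 note: potency for signal decrease marking cytotoxic or nonspecific inhibition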
Protein RecA = biological target: T3, Protein RecA (Mycobacterium tuberculosis, UniProt P9WHJ3); assay: Fluorescence Cell-Free Homogeneous Dose Retest to Identify Inhibitors of RecA-Intein Splicing Activity. [Related pubchem assays (depositor defined):AID2097, AID2223, AID489010, AID492950]; assay type: functional
T3 sequence (P9WHJ3 whole entry): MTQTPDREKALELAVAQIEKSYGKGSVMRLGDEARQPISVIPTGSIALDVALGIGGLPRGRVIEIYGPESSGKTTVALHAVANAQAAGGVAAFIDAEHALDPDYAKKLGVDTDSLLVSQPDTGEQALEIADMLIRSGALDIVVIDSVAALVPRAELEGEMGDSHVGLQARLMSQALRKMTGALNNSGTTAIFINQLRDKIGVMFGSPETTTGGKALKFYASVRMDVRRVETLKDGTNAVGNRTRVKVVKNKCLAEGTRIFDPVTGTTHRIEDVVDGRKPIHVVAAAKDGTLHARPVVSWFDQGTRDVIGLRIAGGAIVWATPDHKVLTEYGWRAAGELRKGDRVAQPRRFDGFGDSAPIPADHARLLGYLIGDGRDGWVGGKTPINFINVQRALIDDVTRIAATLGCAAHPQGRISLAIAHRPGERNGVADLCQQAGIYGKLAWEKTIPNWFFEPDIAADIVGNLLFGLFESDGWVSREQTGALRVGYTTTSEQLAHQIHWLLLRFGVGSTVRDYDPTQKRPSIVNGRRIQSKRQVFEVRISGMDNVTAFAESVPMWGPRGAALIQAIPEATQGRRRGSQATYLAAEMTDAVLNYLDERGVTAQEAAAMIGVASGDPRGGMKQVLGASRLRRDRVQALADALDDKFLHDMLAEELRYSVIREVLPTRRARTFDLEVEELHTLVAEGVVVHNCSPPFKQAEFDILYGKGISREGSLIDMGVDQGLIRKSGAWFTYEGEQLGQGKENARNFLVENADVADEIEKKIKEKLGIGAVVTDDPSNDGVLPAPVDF

[6] = biological target: T4, Mannose-6-phosphate isomerase (Homo sapiens, UniProt P34949); assay: MPI inhibition at elevated mannose 6-phosphate – biochemical, fluorescence intensity, high mannose 6-phosphate, primary screen (AID 1220)
T4 sequence (P34949 whole entry): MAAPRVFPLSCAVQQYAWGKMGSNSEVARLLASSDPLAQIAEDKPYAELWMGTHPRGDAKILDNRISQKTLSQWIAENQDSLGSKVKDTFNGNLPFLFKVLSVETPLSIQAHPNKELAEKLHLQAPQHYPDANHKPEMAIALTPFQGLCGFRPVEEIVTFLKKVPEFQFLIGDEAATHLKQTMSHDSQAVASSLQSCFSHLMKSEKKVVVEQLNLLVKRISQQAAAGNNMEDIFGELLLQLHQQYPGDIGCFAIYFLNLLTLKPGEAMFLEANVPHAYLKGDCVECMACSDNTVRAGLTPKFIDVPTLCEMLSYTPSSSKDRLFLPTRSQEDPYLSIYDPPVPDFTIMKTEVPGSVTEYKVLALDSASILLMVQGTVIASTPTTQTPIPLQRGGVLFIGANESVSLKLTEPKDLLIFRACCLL

[7] = biological target: T5, Replicative DNA helicase DnaB (Mycobacterium tuberculosis, UniProt P9WMR3); assay: DnaB intein splicing inhibitors, dose response, biochemical, cell-free fluorescence (AID 449749); assay type: functional
T5 sequence (P9WMR3 whole entry): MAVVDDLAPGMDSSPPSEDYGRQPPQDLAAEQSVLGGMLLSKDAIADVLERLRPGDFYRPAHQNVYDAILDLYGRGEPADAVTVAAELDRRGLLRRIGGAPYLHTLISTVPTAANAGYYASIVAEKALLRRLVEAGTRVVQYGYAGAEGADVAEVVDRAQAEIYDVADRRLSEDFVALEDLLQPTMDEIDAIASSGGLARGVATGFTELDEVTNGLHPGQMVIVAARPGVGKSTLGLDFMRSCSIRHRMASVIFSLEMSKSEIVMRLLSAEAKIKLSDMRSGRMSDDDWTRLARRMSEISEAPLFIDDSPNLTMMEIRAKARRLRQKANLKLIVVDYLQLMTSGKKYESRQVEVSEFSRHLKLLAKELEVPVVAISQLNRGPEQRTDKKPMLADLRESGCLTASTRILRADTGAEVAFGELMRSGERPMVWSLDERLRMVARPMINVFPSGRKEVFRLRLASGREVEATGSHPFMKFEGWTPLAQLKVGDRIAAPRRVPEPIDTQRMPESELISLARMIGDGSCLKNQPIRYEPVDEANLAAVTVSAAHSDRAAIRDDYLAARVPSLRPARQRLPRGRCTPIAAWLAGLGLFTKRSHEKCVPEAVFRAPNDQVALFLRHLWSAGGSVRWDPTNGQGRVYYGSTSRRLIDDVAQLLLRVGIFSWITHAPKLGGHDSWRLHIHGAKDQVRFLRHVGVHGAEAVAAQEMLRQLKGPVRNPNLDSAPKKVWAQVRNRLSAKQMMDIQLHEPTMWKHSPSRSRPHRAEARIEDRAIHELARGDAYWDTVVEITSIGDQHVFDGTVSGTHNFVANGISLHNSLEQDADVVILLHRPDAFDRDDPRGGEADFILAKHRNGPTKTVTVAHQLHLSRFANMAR

H4 = assay: Luminescence Cell-Based Dose Response HTS to Identify Activators of 5'UTR Stem-Loop Driven Prion Protein mRNA Translation in H4 Neuroglioblastoma Cells. [Related pubchem assays: 1829 (Project Summary), 1814 (Primary HTS)]; assay type: functional; conditions: Homo sapiens
Protein skinhead-1 = biological target: T6, Protein skinhead-1 (Caenorhabditis elegans, UniProt P34707); assay type: functional
T6 sequence (P34707 whole entry): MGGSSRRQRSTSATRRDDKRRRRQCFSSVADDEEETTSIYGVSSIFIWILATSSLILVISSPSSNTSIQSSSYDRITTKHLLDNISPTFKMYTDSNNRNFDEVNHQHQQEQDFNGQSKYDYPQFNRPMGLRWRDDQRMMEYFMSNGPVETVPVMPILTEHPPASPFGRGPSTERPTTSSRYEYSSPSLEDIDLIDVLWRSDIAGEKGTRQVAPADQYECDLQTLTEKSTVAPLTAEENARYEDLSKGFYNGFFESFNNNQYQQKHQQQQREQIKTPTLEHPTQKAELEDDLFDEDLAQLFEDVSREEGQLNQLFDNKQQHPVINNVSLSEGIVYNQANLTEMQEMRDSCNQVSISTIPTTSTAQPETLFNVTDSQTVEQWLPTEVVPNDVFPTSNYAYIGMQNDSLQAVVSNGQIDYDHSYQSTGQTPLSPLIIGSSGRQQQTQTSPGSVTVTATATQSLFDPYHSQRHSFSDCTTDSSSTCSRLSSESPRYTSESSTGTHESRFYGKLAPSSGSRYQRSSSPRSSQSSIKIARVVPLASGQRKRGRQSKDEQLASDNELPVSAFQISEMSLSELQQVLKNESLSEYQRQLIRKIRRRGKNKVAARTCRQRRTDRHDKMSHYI

[8] = Luminescence Cell-Based Dose Response HTS to Identify Activators of Luciferase Translation or Activity in H4 […] Cells. [Related pubchem assays: 1829 (Project Summary), 1814 (Primary HTS)]; assay type: functional
[9] = biological target: Mitogen-activated protein kinase 10 (Homo sapiens, UniProt P53779); assay: Dose response biochemical screening assay for inhibitors of c-Jun N-Terminal Kinase 3 (JNK3). [Related pubchem assays: 746 ]
Mitogen-activated protein kinase 10, sequence (P53779 whole entry): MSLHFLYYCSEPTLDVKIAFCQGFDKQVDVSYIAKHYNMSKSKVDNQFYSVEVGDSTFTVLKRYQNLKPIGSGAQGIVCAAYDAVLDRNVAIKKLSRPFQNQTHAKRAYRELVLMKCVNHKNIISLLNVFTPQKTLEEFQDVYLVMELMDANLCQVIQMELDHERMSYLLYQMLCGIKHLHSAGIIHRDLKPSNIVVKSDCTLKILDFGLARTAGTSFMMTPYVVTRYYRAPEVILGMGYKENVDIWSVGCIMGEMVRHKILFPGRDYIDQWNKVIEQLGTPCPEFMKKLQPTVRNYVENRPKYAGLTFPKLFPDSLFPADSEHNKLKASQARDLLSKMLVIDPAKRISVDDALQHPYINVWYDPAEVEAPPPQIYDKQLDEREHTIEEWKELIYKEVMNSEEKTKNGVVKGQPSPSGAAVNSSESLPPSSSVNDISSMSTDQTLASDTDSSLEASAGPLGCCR

CCc1nnc(NS(=O)(=O)c2ccc(NC(=O)COc3ccc4ccccc4c3)cc2)s1
IC50 (Leucine aminopeptidase): 5.1 µM (active)

CC(C)(C)C1CCc2onc(C(=O)NCc3ccc(F)cc3)c2C1 (stereo unspecified)
AC50 [1]: 2.91 µM (active) | AC50 [2]: 23 µM (active) | AC50 [3]: 21.9 µM (active) | IC50 [4]: > 50 µM (not active) | AC50 [5]: 37 µM (active)

CCCC(=O)OCCNc1cc(SCCC(=O)OC)c2nonc2c1[N+](=O)[O-]
EC50 (Protein RecA): 4.87 µM (active) | IC50 [6]: > 50 µM (not active) | AC50 [7]: 2.88 µM (active)

CC(C)Oc1ccc(CCc2nnc(S)n2Cc2ccccc2)cc1
IC50 [4]: 4.67 µM (not active)

c1ccc(-n2nc3ccc4c[nH]nc4c3n2)cc1
EC50 (H4): 0.327 µM (active) | IC50 (Protein skinhead-1): > 100 µM (inactive) | EC50 [8]: > 120 µM (not active) | IC50 [9]: 43 µM (not active)

CC1=CC(=C2C(=O)c3ccccc3C2=O)C=C(C)N1Cc1ccco1
IC50 [9]: 22.9 µM (not active)

COc1ccc(C(=O)NCc2cn3c(C)csc3n2)cc1OC
IC50 [9]: > 31 µM (not active)
